“And” between values parts separate entries of the source, which are not always exact repeats. Equal values may be shown once. Toxic doses and inconclusive results are not listed. Rule as the data show it: active = T/C of 150% or more; inactive = T/C below 125%.
System: L1210 leukemia ip in BDF1 mice, survival T/C
Assay: NCI In Vivo Anticancer Drug Screen. Data for tumor model L1210 Leukemia (intraperitoneal) in B6D2F1 (BDF1) mice
Conditions: endpoint: mean survival time, higher = longer survival
Summary of the method: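 Transplanted-tumor mice were given test agent; controls received vehicle only. Survival readings from the two groups were divided (treated over control).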

[1] = dose: 100.0 mg/kg/injection, schedule: Q01DX009 (ip), vehicle: Klucel (hydroxypropylcellulose) (HPC)
[2] = dose: 100.0 mg/kg/injection, schedule: Q04DX003 (ip), vehicle: Klucel (hydroxypropylcellulose) (HPC)
[3] = dose: 200.0 mg/kg/injection, schedule: Q01DX009 (ip), vehicle: Klucel (hydroxypropylcellulose) (HPC)
[4] = dose: 400.0 mg/kg/injection, schedule: Q01DX009 (ip), vehicle: Klucel (hydroxypropylcellulose) (HPC)
[5] = dose: 100.0 mg/kg/injection, schedule: Q01DX001 (ip), vehicle: carboxymethylcellulose (CMC)
[6] = dose: 200.0 mg/kg/injection, schedule: Q01DX001 (ip), vehicle: carboxymethylcellulose (CMC)
[7] = dose: 400.0 mg/kg/injection, schedule: Q01DX001 (ip), vehicle: carboxymethylcellulose (CMC)
[8] = dose: 100.0 mg/kg/injection, schedule: Q01DX001 (ip), vehicle: saline
[9] = dose: 200.0 mg/kg/injection, schedule: Q01DX001 (ip), vehicle: saline
[10] = dose: 100.0 mg/kg/injection, schedule: Q04DX002 (ip), vehicle: saline with Tween-80
[11] = dose: 200.0 mg/kg/injection, schedule: Q04DX002 (ip), vehicle: saline with Tween-80
[12] = dose: 400.0 mg/kg/injection, schedule: Q04DX002 (ip), vehicle: saline with Tween-80
[13] = dose: 400.0 mg/kg/injection, schedule: Q01DX001 (ip), vehicle: saline
[14] = dose: 100.0 mg/kg/injection, schedule: Q01DX009 (ip), vehicle: saline with Tween-80
[15] = dose: 200.0 mg/kg/injection, schedule: Q01DX009 (ip), vehicle: saline with Tween-80
[16] = dose: 400.0 mg/kg/injection, schedule: Q01DX009 (ip), vehicle: saline with Tween-80
[17] = dose: 100.0 mg/kg/injection, schedule: Q04DX003 (ip), vehicle: saline with Tween-80
[18] = dose: 200.0 mg/kg/injection, schedule: Q04DX003 (ip), vehicle: saline with Tween-80
[19] = dose: 400.0 mg/kg/injection, schedule: Q04DX003 (ip), vehicle: saline with Tween-80

Measured: T/C

COc1ccc(CO)cc1OC
inactive: [1] 101 % of control | [2] 97 % of control | [3] 113 % of control | dose: 200.0 mg/kg/injection, schedule: Q04DX003 (ip), vehicle: Klucel (hydroxypropylcellulose) (HPC) 94 % of control | [4] 97 % of control | dose: 400.0 mg/kg/injection, schedule: Q04DX003 (ip), vehicle: Klucel (hydroxypropylcellulose) (HPC) 94 % of control

Nc1c(Br)cc2c([nH]c(=O)c3cc(Br)ccc32)c1Br
inactive: [5] 101 % of control | [6] 104 % of control | [7] 106 % of control

ClCCN(CCCCCCN(CCCl)Cc1ccccc1)Cc1ccccc1
inactive: dose: 2.5 mg/kg/injection, schedule: Q04DX002 (ip), vehicle: Klucel (hydroxypropylcellulose) (HPC) 104 % of control | dose: 5.0 mg/kg/injection, schedule: Q04DX002 (ip), vehicle: Klucel (hydroxypropylcellulose) (HPC) 100 % of control

CCCCCCCCCCCCCCCCCCNC(=S)SCCCC
inactive: dose: 400.0 mg/kg/injection, schedule: Q04DX002 (ip), vehicle: saline + alcohol 100 % of control

COc1cc([N+](=O)[O-])ccc1NC(=O)Oc1ccc(F)cc1Cl
inactive: [1] 94 % of control | [3] 88 % of control

CCOC(=O)C(Cc1ccc(O)c(N(CCO)CCO)c1)N1C(=O)c2ccccc2C1=O (stereo not drawn)
inactive: [8] 101 % of control | [9] 112 % of control

CP1(=O)CCC(Br)C1Br (stereo not drawn)
inactive: [10] 91 % of control | [11] 91 % of control | [12] 98 % of control

COc1ccc(/C=C(/C(=O)O)c2ccc(OC)cc2)cc1
inactive: dose: 100.0 mg/kg/injection, schedule: Q04DX003 (ip), vehicle: other 98 % of control | dose: 200.0 mg/kg/injection, schedule: Q04DX003 (ip), vehicle: other 95 % of control | dose: 400.0 mg/kg/injection, schedule: Q04DX003 (ip), vehicle: other 95 % of control

CC(=O)NC(N)=S
inactive: dose: 25.0 mg/kg/injection, schedule: Q04DX002 (ip), vehicle: Klucel (hydroxypropylcellulose) (HPC) 108 % of control | dose: 50.0 mg/kg/injection, schedule: Q04DX002 (ip), vehicle: Klucel (hydroxypropylcellulose) (HPC) 108 % of control | dose: 50.0 mg/kg/injection, schedule: Q04DX003 (ip), vehicle: Klucel (hydroxypropylcellulose) (HPC) 97 % of control | dose: 100.0 mg/kg/injection, schedule: Q04DX002 (ip), vehicle: Klucel (hydroxypropylcellulose) (HPC) 108 % of control | [2] 103 % of control

Cc1[nH]c(=O)nc2c1CCO2
inactive: [8] 98 % of control | [9] 104 % of control | [13] 101 % of control

CC(=O)NCC(O)c1ccccc1 (stereo not drawn)
inactive: [8] 94 % of control | [9] 100 % of control | [13] 91 % of control

O=C1OC(c2ccccc2)CC1NCc1ccccc1 (stereo not drawn)
inactive: dose: 100.0 mg/kg/injection, schedule: Q01DX001 (ip), vehicle: Klucel (hydroxypropylcellulose) (HPC) 98 % of control | dose: 200.0 mg/kg/injection, schedule: Q01DX001 (ip), vehicle: Klucel (hydroxypropylcellulose) (HPC) 101 % of control | dose: 400.0 mg/kg/injection, schedule: Q01DX001 (ip), vehicle: Klucel (hydroxypropylcellulose) (HPC) 96 % of control

C[Si](C)(C)Oc1cccc([Si](C)(C)C)c1
inactive: [14] 97 % of control | [15] 95 % of control | [16] 92 % of control

CS(=O)(=O)OC1C2CCC(C2=C(c2ccccc2)c2ccccc2)C1OS(C)(=O)=O (stereo not drawn)
inactive: dose: 75.0 mg/kg/injection, schedule: Q01DX001 (ip), vehicle: carboxymethylcellulose (CMC) 93 % of control | dose: 150.0 mg/kg/injection, schedule: Q01DX001 (ip), vehicle: carboxymethylcellulose (CMC) 101 % of control | dose: 300.0 mg/kg/injection, schedule: Q01DX001 (ip), vehicle: carboxymethylcellulose (CMC) 91 % of control

COc1ccccc1NC(=O)NCCCCCCNC(=O)Nc1ccccc1OC
inactive: [1] 89 % of control | [3] 92 % of control | [4] 94 % of control

CC(CCc1ccccc1)NN (stereo not drawn)
inactive: dose: 3.12 mg/kg/injection, schedule: Q01DX009 (ip), vehicle: saline with Tween-80 98 % of control | dose: 6.25 mg/kg/injection, schedule: Q01DX009 (ip), vehicle: saline with Tween-80 96 % of control | dose: 12.5 mg/kg/injection, schedule: Q01DX009 (ip), vehicle: saline with Tween-80 90 % of control | dose: 25.0 mg/kg/injection, schedule: Q01DX009 (ip), vehicle: saline with Tween-80 96 % of control | dose: 25.0 mg/kg/injection, schedule: Q04DX003 (ip), vehicle: saline 100 % of control | dose: 50.0 mg/kg/injection, schedule: Q01DX009 (ip), vehicle: saline with Tween-80 91 % of control | dose: 50.0 mg/kg/injection, schedule: Q04DX003 (ip), vehicle: saline 100 % of control

CN=C(NC)c1ccc(NC(=O)c2ccc(C(=O)Nc3ccc(C(=NC)NC)c(C)c3)cc2)cc1C
inactive: dose: 4.4 mg/kg/injection, schedule: Q01DX Z (ip), vehicle: carboxymethylcellulose (CMC) 98 % of control | dose: 6.6 mg/kg/injection, schedule: Q01DX Z (ip), vehicle: carboxymethylcellulose (CMC) 102 % of control | dose: 10.0 mg/kg/injection, schedule: Q01DX Z (ip), vehicle: carboxymethylcellulose (CMC) 100 % of control | dose: 15.0 mg/kg/injection, schedule: Q01DX Z (ip), vehicle: carboxymethylcellulose (CMC) 107 % of control and 108 % of control and 112 % of control | dose: 22.5 mg/kg/injection, schedule: Q01DX Z (ip), vehicle: carboxymethylcellulose (CMC) 111 % of control | dose: 30.0 mg/kg/injection, schedule: Q01DX Z (ip), vehicle: carboxymethylcellulose (CMC) 96 % of control | dose: 35.0 mg/kg/injection, schedule: Q01DX Z (ip), vehicle: carboxymethylcellulose (CMC) 100 % of control

Cc1ccc(C)c(Br)c1C
inactive: [14] 104 % of control | [10] 104 % of control | [15] 104 % of control | [11] 101 % of control | [16] 101 % of control | [12] 101 % of control

CS(=O)(=O)Oc1ccc(Cl)c2ccccc12
inactive: [5] 98 % of control | [6] 101 % of control | [7] 95 % of control

CCOP(=O)(OC(C)CC)OC(C)CC (stereo not drawn)
inactive: dose: 100.0 mg/kg/injection, schedule: Q04DX003 (ip), vehicle: carboxymethylcellulose (CMC) 93 % of control | dose: 200.0 mg/kg/injection, schedule: Q04DX003 (ip), vehicle: carboxymethylcellulose (CMC) 87 % of control

Cc1cc(=O)oc2ccc(OS(C)(=O)=O)cc12
inactive: dose: 50.0 mg/kg/injection, schedule: Q01DX009 (ip), vehicle: Klucel (hydroxypropylcellulose) (HPC) 90 % of control | [1] 101 % of control | [3] 90 % of control

O=C(O)C1CC=CCC1C(=O)O (stereo not drawn)
inactive: dose: 100.0 mg/kg/injection, schedule: Q01DX005 (ip), vehicle: saline 95 % of control | dose: 100.0 mg/kg/injection, schedule: Q01DX009 (ip), vehicle: saline 108 % of control | [17] 97 % of control | dose: 100.0 mg/kg/injection, schedule: Q04DX003 (ip), vehicle: saline 94 % of control | dose: 200.0 mg/kg/injection, schedule: Q01DX005 (ip), vehicle: saline 98 % of control | dose: 200.0 mg/kg/injection, schedule: Q01DX009 (ip), vehicle: saline 118 % of control | [18] 95 % of control | dose: 200.0 mg/kg/injection, schedule: Q04DX003 (ip), vehicle: saline 91 % of control | dose: 400.0 mg/kg/injection, schedule: Q01DX005 (ip), vehicle: saline 92 % of control | [19] 91 % of control | dose: 400.0 mg/kg/injection, schedule: Q04DX003 (ip), vehicle: saline 99 % of control

COC1OCC(N=[N+]=[N-])C(OS(C)(=O)=O)C1OS(C)(=O)=O (stereo not drawn)
inactive: [17] 94 % of control | [18] 90 % of control | [19] 92 % of control

O=C(N/N=C/c1ccco1)c1cccnc1
inactive: [1] 97 % of control | [3] 101 % of control

N#CC(Nc1c(N)nc(-c2ccccc2)nc1N)c1ccc(N(CCCl)CCCl)cc1 (stereo not drawn)
inactive: dose: 50.0 mg/kg/injection, schedule: Q01DX001 (ip), vehicle: carboxymethylcellulose (CMC) 100 % of control | [5] 115 % of control | [6] 100 % of control | [7] 105 % of control

— PubChem BioAssay AID248 (DTP/NCI, 2004)
